Data as given in patent US9932340B2, “Substituted indoles” (AbbVie Inc., priority 2014, dated 2018).

Biological target: SUV420H1 enzyme (Homo sapiens, UniProt Q4FZB7)
Assay: TR-FRET SAH SUV420H1 enzyme inhibition assay
Assay type: biochemical
Conditions: Histone Peptide H4(8-30)me1 and SAM, overnight at room temp, TR-FRET detection of SAH, read-out: TR-FRET SAH_SUV420H1 IC50
Description: Test compounds were dispensed by a Labcyte Echo in 384-well low volume assay plates with 3-fold serial dilutions from 50 μM to 0.00075 μM. 5 μL of SUV420H1 enzyme (Abbvie) at 90 nM was added to all wells except the no enzyme control wells, and incubated for 30 minutes at room temp before 5 μL of Histone Peptide H4(8-30)me1 (Anaspec) at 5 nM and SAM at 4 nM was added to all wells. The plates were incubated in a humidified chamber overnight at room temp and then 10 μL of the detection reagent that contained RIPA buffer (50 mM Tris-HCl, pH 8.0, 150 mM sodium chloride, 1.0% Igepal CA-630 (NP-40), 0.5% sodium deoxycholate and 0.1% sodium dodecyl sulfate) (Sigma) with 2 nM of Terbium chelate anti S-adenosyl-L-homocysteine (SAH) (Abbvie) antibody and Oregon Green labeled SAH at 4 nM was added. The plates were further incubated for 4 hours at room temperature. The plates were read in a Perkin Elmer Envision using a TR-FRET protocol with Excitation set at 335 nm and Emission at 520 and 495 nm. To generate dose response curves the data is normalized to percent inhibition by setting the average of the plus and minus enzyme control wells to 0% and 100% inhibition respectively. The IC50 values for the compounds are generated by fitting the normalized data with Accelrys Assay Explorer 3.3 to a sigmoidal curve model using […] regression, Y=(100*x^n)/(K^n+x^n), where Y is the measured response, x is the compound concentration, n is the Hill Slope and K is the IC50 and the lower and higher asymptotes are constrained to 0 and 100 respectively.

Sequence of SUV420H1 enzyme (Q4FZB7 whole entry): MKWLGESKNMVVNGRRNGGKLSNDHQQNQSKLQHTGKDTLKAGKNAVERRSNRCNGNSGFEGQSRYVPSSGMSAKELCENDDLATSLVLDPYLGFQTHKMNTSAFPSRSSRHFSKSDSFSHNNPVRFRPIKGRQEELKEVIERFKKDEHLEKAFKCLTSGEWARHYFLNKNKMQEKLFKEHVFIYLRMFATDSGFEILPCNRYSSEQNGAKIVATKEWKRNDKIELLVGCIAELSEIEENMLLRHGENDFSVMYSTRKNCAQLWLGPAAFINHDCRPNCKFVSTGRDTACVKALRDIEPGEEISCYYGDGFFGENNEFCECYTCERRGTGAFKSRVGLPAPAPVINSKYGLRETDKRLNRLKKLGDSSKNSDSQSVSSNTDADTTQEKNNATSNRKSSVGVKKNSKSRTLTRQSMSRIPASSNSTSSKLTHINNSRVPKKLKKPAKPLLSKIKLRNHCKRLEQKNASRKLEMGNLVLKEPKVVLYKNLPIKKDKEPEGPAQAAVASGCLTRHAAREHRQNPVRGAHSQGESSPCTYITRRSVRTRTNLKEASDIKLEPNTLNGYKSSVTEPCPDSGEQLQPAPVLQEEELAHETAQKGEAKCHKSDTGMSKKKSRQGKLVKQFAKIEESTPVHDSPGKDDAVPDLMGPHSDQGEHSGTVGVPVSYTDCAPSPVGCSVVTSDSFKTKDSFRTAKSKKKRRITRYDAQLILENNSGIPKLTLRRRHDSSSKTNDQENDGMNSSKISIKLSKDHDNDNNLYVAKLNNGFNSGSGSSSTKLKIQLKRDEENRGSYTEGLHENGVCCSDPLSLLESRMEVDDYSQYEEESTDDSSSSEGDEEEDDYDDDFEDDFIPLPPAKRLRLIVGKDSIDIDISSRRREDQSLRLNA

`Cc1noc(C)c1C(=O)NCc1cc2cc(-c3ccc(F)cc3)cc(Cn3cnc4c(N)ncnc43)c2[nH]1` [Example 165, N-({7-[(6-amino-9H-purin-9-yl)methyl]-5-(4-fluorophenyl)-1H-indol-2-yl}methyl)-3,5-dimethyl-1,2-oxazole-4-carboxamide] and `Cc1noc(C)c1C(=O)NCc1cc2cc(-c3ccc(S(C)(=O)=O)cc3)cc(Cn3cnc4c(N)ncnc43)c2[nH]1` [Example 170, N-({7-[(6-amino-9H-purin-9-yl)methyl]-5-[4-(methylsulfonyl)phenyl]-1H-indol-2-yl}methyl)-3,5-dimethyl-1,2-oxazole-4-carboxamide] are within 1.5-fold of each other in IC50: 233 nM for the first, 208 nM for the second.

First: COc1cccc(-c2cc(Cn3cnc4c(N)ncnc43)c3[nH]c(CNC(=O)c4c(C)noc4C)cc3c2)c1 [Example 169, N-({7-[(6-amino-9H-purin-9-yl)methyl]-5-(3-methoxyphenyl)-1H-indol-2-yl}methyl)-3,5-dimethyl-1,2-oxazole-4-carboxamide]
Second: CCNC(=O)c1cccc(-c2cc(Cn3cnc4c(N)ncnc43)c3[nH]c(CN)cc3c2)c1 [Example 46, 3-{2-(aminomethyl)-7-[(6-amino-9H-purin-9-yl)methyl]-1H-indol-5-yl}-N-ethylbenzamide]
The IC50 of the first is 6.8-fold lower: 80.1 nM for the first, 541 nM for the second. The first is the more potent here.

Compared with `CC(=O)N1CC=C(c2cc(Cn3cnc4c(N)ncnc43)c3[nH]c(CNC(=O)c4ccc(C#N)cc4C)cc3c2)CC1` [Example 307, N-({5-(1-acetyl-1,2,3,6-tetrahydropyridin-4-yl)-7-[(6-amino-9H-purin-9-yl)methyl]-1H-indol-2-yl}methyl)-4-cyano-2-methylbenzamide], `N#Cc1ccc(C(=O)NCc2cc3cc(C4=CCC(F)(F)CC4)cc(Cn4cnc5c(N)ncnc54)c3[nH]2)c(F)c1` [Example 287, N-({7-[(6-amino-9H-purin-9-yl)methyl]-5-(4,4-difluorocyclohex-1-en-1-yl)-1H-indol-2-yl}methyl)-4-cyano-2-fluorobenzamide] is 3-fold higher in IC50: 29.7 nM for the first, 87.8 nM for the second.

First: NCc1cc2cc(-c3cccc(C(=O)NC4CC4)c3)cc(Cn3cnc4c(N)ncnc43)c2[nH]1 [Example 51, 3-{2-(aminomethyl)-7-[(6-amino-9H-purin-9-yl)methyl]-1H-indol-5-yl}-N-cyclopropylbenzamide]
Second: NCc1cc2cc(-c3cccnc3)cc(Cn3cnc4c(N)ncnc43)c2[nH]1 [Example 20, 9-{[2-(aminomethyl)-5-(pyridin-3-yl)-1H-indol-7-yl]methyl}-9H-purin-6-amine]
The IC50 of the first is 2.9-fold lower: 294 nM for the first, 866 nM for the second.

`Nc1ncnc2c1ncn2Cc1cc(Cl)cc2cc(CNC(=O)c3ccc4occc4c3)[nH]c12` [Example 355, N-({7-[(6-amino-9H-purin-9-yl)methyl]-5-chloro-1H-indol-2-yl}methyl)-1-benzofuran-5-carboxamide] and `Nc1ncnc2c1ncn2Cc1cc(Cl)cc2cc(CNC(=O)c3ccc4ocnc4c3)[nH]c12` [Example 339, N-({7-[(6-amino-9H-purin-9-yl)methyl]-5-chloro-1H-indol-2-yl}methyl)-1,3-benzoxazole-5-carboxamide] are within 1.5-fold of each other in IC50: 4870 nM for the first, 6870 nM for the second.

`N#Cc1ccccc1CNCc1cc2cc(Cl)cc(Cn3cnc4c(N)ncnc43)c2[nH]1` [Example 269, 2-{[({7-[(6-amino-9H-purin-9-yl)methyl]-5-chloro-1H-indol-2-yl}methyl)amino]methyl}benzonitrile] and `N#Cc1cccc(CNCc2cc3cc(Cl)cc(Cn4cnc5c(N)ncnc54)c3[nH]2)c1` [Example 268, 3-{[({7-[(6-amino-9H-purin-9-yl)methyl]-5-chloro-1H-indol-2-yl}methyl)amino]methyl}benzonitrile] are within 1.5-fold of each other in IC50: 5600 nM for the first, 4640 nM for the second.

First: Nc1ncnc2c1ncn2Cc1cc(Cl)cc2cc(CNCc3cc(F)ccc3Cl)[nH]c12 [Example 217, 9-[(5-chloro-2-{[(2-chloro-5-fluorobenzyl)amino]methyl}-1H-indol-7-yl)methyl]-9H-purin-6-amine]
Second: N#Cc1ccc(F)c(CNCc2cc3cc(Cl)cc(Cn4cnc5c(N)ncnc54)c3[nH]2)c1 [Example 270, 3-{[({7-[(6-amino-9H-purin-9-yl)methyl]-5-chloro-1H-indol-2-yl}methyl)amino]methyl}-4-fluorobenzonitrile]
The IC50 of the first is 1.5-fold lower: 2430 nM for the first, 3750 nM for the second.

Going from `Nc1nc(C2CC2)nc2c1ncn2Cc1cccc2cc[nH]c12` [Example 6, 2-cyclopropyl-9-(1H-indol-7-ylmethyl)-9H-purin-6-amine] to `N#Cc1cccc(-c2ccc(Cn3cnc4c(N)ncnc43)c3[nH]c(CN)cc23)c1` [Example 83, 3-{2-(aminomethyl)-7-[(6-amino-9H-purin-9-yl)methyl]-1H-indol-4-yl}benzonitrile], the IC50 falls from 1460 nM to 831 nM (1.8-fold).

First: CC1CCCCC1C(=O)NCc1cc2cc(Cl)cc(Cn3cnc4c(N)ncnc43)c2[nH]1 (centres unmarked) [Example 132, N-({7-[(6-amino-9H-purin-9-yl)methyl]-5-chloro-1H-indol-2-yl}methyl)-2-methylcyclohexanecarboxamide]
Second: CC(C)(C)OC(=O)N1CCC[C@@H]1C(=O)NCc1cc2cc(Cl)cc(Cn3cnc4c(N)ncnc43)c2[nH]1 [Example 124, tert-butyl (2R)-2-[({7-[(6-amino-9H-purin-9-yl)methyl]-5-chloro-1H-indol-2-yl}methyl)carbamoyl]pyrrolidine-1-carboxylate]
The IC50 of the first is 3.8-fold lower: 6250 nM for the first, 23900 nM for the second. The first is the more potent here.

`Cc1cccc(CC(=O)NCc2cc3cc(Cl)cc(Cn4cnc5c(N)ncnc54)c3[nH]2)c1` [Example 293, N-({7-[(6-amino-9H-purin-9-yl)methyl]-5-chloro-1H-indol-2-yl}methyl)-2-(3-methylphenyl)acetamide] and `Nc1ncnc2c1ncn2Cc1cc(Cl)cc2cc(CNC(=O)Cc3cccc(F)c3)[nH]c12` [Example 255, N-({7-[(6-amino-9H-purin-9-yl)methyl]-5-chloro-1H-indol-2-yl}methyl)-2-(3-fluorophenyl)acetamide] are within 1.5-fold of each other in IC50: 20500 nM for the first, 15500 nM for the second.

`CCCCc1nc2cc(C(=O)NCc3cc4cc(Cl)cc(Cn5cnc6c(N)ncnc65)c4[nH]3)ccc2o1` [Example 379, N-({7-[(6-amino-9H-purin-9-yl)methyl]-5-chloro-1H-indol-2-yl}methyl)-2-butyl-1,3-benzoxazole-5-carboxamide] and `Cc1nc2ccc(C(=O)NCc3cc4cc(Cl)cc(Cn5cnc6c(N)ncnc65)c4[nH]3)cc2s1` [Example 358, N-({7-[(6-amino-9H-purin-9-yl)methyl]-5-chloro-1H-indol-2-yl}methyl)-2-methyl-1,3-benzothiazole-6-carboxamide] are within 1.5-fold of each other in IC50: 765 nM for the first, 889 nM for the second.

First: Cc1cc(C(=O)NCc2cc3cc(Cl)cc(Cn4cnc5c(N)ncnc54)c3[nH]2)c(C)nn1 [Example 234, N-({7-[(6-amino-9H-purin-9-yl)methyl]-5-chloro-1H-indol-2-yl}methyl)-3,6-dimethylpyridazine-4-carboxamide]
Second: Cc1cc(C(=O)NCc2cc3cc(Cl)cc(Cn4cnc5c(N)ncnc54)c3[nH]2)n(C)n1 [Example 183, N-({7-[(6-amino-9H-purin-9-yl)methyl]-5-chloro-1H-indol-2-yl}methyl)-1,3-dimethyl-1H-pyrazole-5-carboxamide]
The IC50 of the first is 29-fold lower: 60.6 nM for the first, 1780 nM for the second. The first is the more potent here.

Going from `CS(=O)(=O)Nc1ccc(-c2cc(Cn3cnc4c(N)ncnc43)c3[nH]c(CN)cc3c2)cc1` [Example 41, N-(4-{2-(aminomethyl)-7-[(6-amino-9H-purin-9-yl)methyl]-1H-indol-5-yl}phenyl)methanesulfonamide] to `NCc1cc2c(-c3ccc(F)cc3)ccc(Cn3cnc4c(N)ncnc43)c2[nH]1` [Example 73, 9-{[2-(aminomethyl)-4-(4-fluorophenyl)-1H-indol-7-yl]methyl}-9H-purin-6-amine], the IC50 rises from 236 nM to 722 nM (3.1-fold). The first is the more potent here.

Going from `Nc1ncnc2c1ncn2Cc1cc(Cl)cc2cc(CN(CC(=O)O)CC(=O)O)[nH]c12` [Example 101, 2,2′-[({7-[(6-amino-9H-purin-9-yl)methyl]-5-chloro-1H-indol-2-yl}methyl)imino]diacetic acid] to `Nc1ncnc2c1ncn2Cc1cc(Cl)cc2cc(CNCCC(=O)O)[nH]c12` [Example 96, 3-[({7-[(6-amino-9H-purin-9-yl)methyl]-5-chloro-1H-indol-2-yl}methyl)amino]propanoic acid], the IC50 falls from > 50000 nM to 16300 nM. The second is the more potent here.

Compared with `Cn1nccc1C(=O)NCc1cc2cc(Cl)cc(Cn3cnc4c(N)ncnc43)c2[nH]1` [Example 152, N-({7-[(6-amino-9H-purin-9-yl)methyl]-5-chloro-1H-indol-2-yl}methyl)-1-methyl-1H-pyrazole-5-carboxamide], `CC(C)c1oncc1C(=O)NCc1cc2cc(Cl)cc(Cn3cnc4c(N)ncnc43)c2[nH]1` [Example 187, N-({7-[(6-amino-9H-purin-9-yl)methyl]-5-chloro-1H-indol-2-yl}methyl)-5-(propan-2-yl)-1,2-oxazole-4-carboxamide] is 1.7-fold higher in IC50: 1080 nM for the first, 1870 nM for the second. The first is the more potent here.

Compared with `Cc1cccc(C)c1CNCc1cc2cc(Cl)cc(Cn3cnc4c(N)ncnc43)c2[nH]1` [Example 290, 9-[(5-chloro-2-{[(2,6-dimethylbenzyl)amino]methyl}-1H-indol-7-yl)methyl]-9H-purin-6-amine], `Nc1ncnc2c1ncn2Cc1cc(Cl)cc2cc(CNC(=O)Cc3ccccn3)[nH]c12` [Example 230, N-({7-[(6-amino-9H-purin-9-yl)methyl]-5-chloro-1H-indol-2-yl}methyl)-2-(pyridin-2-yl)acetamide] is 6-fold higher in IC50: 2800 nM for the first, 16700 nM for the second.
